Entries after “also recorded” stand apart in the source; their conditions may differ. Residues, ends and D or L forms follow the SMILES beside them. No end group written: not given here. *: point of attachment. Hexanoyl(6-Ph) = O=C(CCCCCc1ccccc1)*
What was measured:
[1] = test system: virgin females of Heliothis virescens; assay: Pheromonotropic assay (injection); type: in vivo; conditions: 0.06-200 pmol, 60 min after injection, FIG. 5
Method: Pupae of H. virescens were obtained from a laboratory colony maintained at the Insect Attractants, Behavior and Basic Biology Research Laboratory, USDA-ARS, in Gainesville, Fla. The pupae were separated by sex and the males were discarded. After eclosion, the females were held in 4-1 cages and provided with cotton wicks soaked with 5% sucrose solution. The insects were held at 25°±2° C, 65±3% relative humidity with a 12:12 (L:D) photoperiod. Virgin females were used for bioassays 2 and 3 days after eclosion during the 7th-8th hour of the photophase when endogenous levels of pheromone are very low (Abernathy, 1995, Regulation of sex pheromone production and oviposition in virgin females of noctuid moths, doctoral dissertation, University of Florida, Gainesville, Fla., pp. 1-107).
Pheromone biosynthesis neuropeptide from H. zea (Hez--PBAN) and the carboranyl pseudopeptide Cbe--Thr--Pro--Arg--Leu--NH2 were dissolved in physiological saline (Christensen et al., 1991, Proc. Natl. Acad. Sci. USA, 88:4971-4975). Female H. virescens insects were injected through the side of the third abdominal segment using a 26-ga needle with 20 μl of the above solutions. Each female received a dose of 0.01, 0.03, 0.1, 0.3, 1, 3, 10, 30, 100 or 300 pmol. After 1 h of incubation, the terminal abdominal segments, which contain the pheromone gland, were excised and placed in 10 μl of hexane containing 10 ng each of internal standards (octadecane and nonadecane) used for quantitation and calculation of relative retention indices. The pheromone gland extracts were analyzed for the amount of (Z)-11-hexadecenal (Z11-16:AL), the major sex pheromone component of H. virescens (Klun et al., 1980, J. Chem. Ecol., 6:165-175) by capillary gas chromatography. Hewlett-Packard 5890 gas chromatographs were equipped with splitless injectors, flame ionization detectors, and 30 m×0.25 mm (i.d.) fused silica "SPB 10" (polar) or "SPB1" (apolar) columns (Supelco). Conditions of chromatography were as follows: initial temperature=60° C.; injector operated in the splitless mode for 0.5 min; oven temperature increased by 30° C./min after 1 min; final temperature=190° C. ("SPB10") or 200° C. ("SPB1"); helium carrier gas at a linear flow velocity of 18 cm/s. A Nelson Analytical 3000° acquisition system (Cupertino, Calif.) was used to collect and analyze the data (Teal et al., 1989, Proc. Natl. Acad. Sci. USA, 86:2488-2492).
After the dose response of Hez--PBAN was completed, the […] dose was chosen to use for comparison with the carboranyl pseudopeptide assayed here. Insects were also injected with saline alone as a control. The pseudopeptide was prepared by dilution with saline as described above. Based on the dose-response for the activity of Hez--PBAN, […] were chosen to assess the pheromonotropic activity of the carboranyl pseudopeptide. Females were injected with 20 μl containing 0.01, 0.03, 0.1, 0.3, 1, 3, 10, 30, 100, or 300 pmol. Each bioassay consisted of one dose of several different peptides along with saline and Hez--PBAN controls. The amount of pheromone present in extracts of the pheromone glands of females from each group was compared with that produced by females injected with 5 pmol of Hez--PBAN during that particular bioassay. After all the bioassays were completed, the amount of pheromone produced by each insect was calculated as a percentage of the amount of pheromone produced by females treated with Hez--PBAN. Data were analyzed using one-way ANOVA and t-test with "STATVIEW" software. Variability was reported as SEM.
The pheromonotropic activity of Hez--PBAN, Lom--MT--II and [6--Pha--Ala^0 ]Lom--MT--II was first determined by a series of injection bioassays. Peptides were dissolved in physiological saline (Christensen et al., ibid) and diluted to concentrations of 0.003, 0.01, 0.03, 0.1, 0.3, 1.0, 3.0 and 10.0 pmol/μl. Insects were injected through the side of the 3rd abdominal segment using a 26 ga. needle with 20 μl of the above solutions. […]

[2] = test system: virgin females of Heliothis virescens; assay: Pheromonotropic assay (topical application); type: in vivo; conditions: for pheromone production, topical 500 pmol/female in 80% acetonitrile: 80% acetonitrile in water; for pheromone production, topical 500 pmol/female in 80% acetonitrile / pheromone production, topical 500 pmol/female in DMSO / pheromone production, topical 500 pmol/female in water: FIG. 7; for pheromone production after topical application in DMSO: descaled cuticle
Method: The amphiphilic carboranyl analog Cbe--Thr--Pro--Arg--Leu--NH2 was dissolved in water and solutions at concentrations of 5, 10, 25, 60, and 200 pmol/μl were prepared. The cuticular scales along the lateral side of the abdomen were removed with a 1 ml plastic pipet tip attached to house vacuum with a rubber hose. A low vacuum was applied to the apparatus and the pipet tip was gently passed over the cuticle until the scales were drawn by suction. After the scales were removed, 1 μl of peptide solution was applied to the surface of the cuticle and smoothed evenly over the prepared surface. […]
Pupae of Heliothis virescens were obtained from a laboratory colony maintained at the Insect Attractants Behavior and Basic Biology Research Laboratory, USDA-ARS, Gainesville, Fla. The pupae were separated by sex and the females were held in 4-1 cages. Cages were inspected daily for newly eclosed adults which were transferred to new cages and provided with cotton wicks soaked with a 5% sucrose solution. The insects were held at 25°[…] C. and 65%±3% relative humidity with a 12:12 (L:D) photoperiod. Virgin females were used for bioassays 2 and 3 days after eclosion during the 7th-8th hour of the photophase when little or no pheromone is present in the gland (Teal et al., 1993, Can. Entomol., 153:355-366). The cuticular scales were removed from the lateral side of the abdomen using a plastic pipet tip attached to house vacuum using a rubber hose. A low vacuum was applied and the pipet tip was passed gently over the cuticle until the scales were drawn off by suction. Insects were returned to the incubator for 24 h after the scales were removed for most experiments. However, insects were not given a recovery period in studies in which peptides were applied in DMSO (see below).
In initial studies we used dimethyl sulfoxide (DMSO) as a carrier to deliver Hez--PBAN or [6--Pha--Ala^0 ]Lom--MT--II for topical applications. […] We also assessed different carrier solvents for their ability to deliver these two peptides. Peptides were dissolved at a concentration of 500 pmol/μl in: DMSO, water, or 80% acetonitrile:20% water. Solutions were applied to the descaled abdomen in 1 μl of solvent as above. The insects were allowed to incubate for 1 h prior to excision and extraction of the pheromone gland. Extracts were analyzed for the amount of pheromone as above.
The use of water as a carrier for [6--Pha--Ala^0 ]Lom--MT--II was also assessed in dose response and temporal activity studies. For dose response studies [6--Pha--Ala^0 ]Lom--MT--II was dissolved in water at concentrations of 5, 10, 25, 50, 75, 100, 250, 500, 750 and 1000 pmol/μl. Insects were incubated for 60 min after application of 1 μl of solution to the descaled abdomen. In temporal activity studies a 100 pmol/μl dose was selected. For these experiments insects were incubated for periods of 15, 30, 60, 120, or 180 min after application of 1 μl of solution to the descaled abdomen. The ability of the parent peptide, Lom--MT--II, to stimulate pheromone production when applied topically in water was assessed by applying doses of 50, 100, 250 and 500 pmol to the abdomen. Control treatments for this experiment included insects treated with only water and females treated by topical application of 100 pmol of [6--Pha--Ala^0 ]Lom--MT--II. After incubation the sex pheromone glands were excised, extracted and analyzed for the amount of pheromone.

[3] = test system: isolated cockroach (Leucophaea maderae) hindgut; conditions: values printed with reference numbers; cited from earlier work
[4] = test system: virgin females of Heliothis virescens; conditions: H. virescens, printed with reference number; cited from earlier work
[5] = test system: virgin females of Heliothis virescens; conditions: 100 pmole dose, cited from earlier work
[6] = cited from earlier work
[7] = test system: isolated cockroach (Leucophaea maderae) hindgut; assay: Cockroach myotropic bioassay (isolated hindgut); type: cell-based; conditions: isolated hindgut, FIG. 2; listed as LPK
Method: Leucophaea maderae cockroaches were taken from stock colonies maintained at 27° C. and fed dry dog food ad lib. Cockroach hindguts, free of central nervous system (CNS) tissue, were dissected, immersed in saline, and prepared for recording of myogenic activity as previously described (Holman et al., 1991, ibid). Threshold concentrations were determined for each analogue by adding a known quantity of peptide (dissolved in 0.5 ml bioassay saline) to the bioassay chamber containing the hindgut and observing the response on a Gould 2200S oscillograph recorder. The quantity of the peptide analogues was calculated from the values obtained for Phe and/or Leu in the amino acid analysis. The threshold concentration was defined as the minimum concentration of peptide in the chamber required to evoke an observable change in the frequency (50%) or amplitude of contractions (5%) within 1 min and sustained for 3 min. Threshold concentrations were obtained from five cockroach hindguts on 5 consecutive days for each peptide. Quantitative data for dose-response plots were obtained as previously described (Holman et al., 1991, ibid).

corn earworm moth H. zea = conditions: cited from earlier work
[8] = aqueous solution, 15 min to 3 hr

CC(C)C[C@H](NC(=O)[C@H](CCCNC(=N)N)NC(=O)[C@@H]1CCCN1C(=O)[C@@H](NC(=O)[C@H](Cc1ccccc1)NC(=O)[C@H](CC(=O)O)NC(=O)CNC(=O)[C@H](CCC(=O)O)NC(=O)[C@H](C)NC(=O)CCCCCc1ccccc1)[C@@H](C)O)C(N)=O [[6--Pha--Ala^0]Lom--MT--II] ({Hexanoyl(6-Ph)}-AEGDFTPRL-NH2)
pheromonotropic activity of injected peptide, compared [1]: reduced the activity, compared to Lom--MT--II, at doses up to 6 pmol; also recorded: equivalent to Hez--PBAN at all other doses | pheromonotropic activity of injected peptide, compared ([1]; listed as [6--Pha--Ala^0]Lom--MT--II): pheromonotropic activity equivalent to Hez--PBAN | time after application at which gland extracts contained significant amounts of pheromone ([2]; 100 pmol in water, FIG. 9): ≤ 15 min | time of maximal activity after application ([2]; 100 pmol in water, FIG. 9): 60 min | pheromone production, topical 500 pmol/female in 80% acetonitrile ([2]; 60 min): significant amounts of pheromone; also recorded: induced the production of pheromone | response to topical application of 5 and 10 pmol doses in DMSO ([2]; DMSO carrier, 60 min, FIG. 6): produced pheromone | amount of pheromone at 100 to 1000 pmol/female, topical in DMSO ([2]; DMSO carrier, FIG. 6): equivalent amounts of pheromone | pheromone production after topical application in DMSO ([2]; DMSO carrier): produced pheromone; also recorded: effective in stimulating pheromone production | pheromone production, topical 500 pmol/female in DMSO ([2]; 60 min): equivalent amounts of pheromone | concentration giving maximal pheromone stimulation, topical application ([2]; topically applied): 100 picomoles/insect | dose up to which activity increased in a linear fashion (100-1000 pmol not different) ([2]; water carrier, 60 min, FIG. 8): 100 pmol | doses stimulating significantly more pheromone than just water, topical in water ([2]; water carrier, 60 min, FIG. 8): ≥ 10 pmol | pheromone production, topical 500 pmol/female in water ([2]; 60 min): significant amounts of pheromone

LSDDMPATPADQEMYRQDPEQIDSRTKYFSPRL-NH2 [HezPBAN, reference compound]
pheromone versus water-only controls, time course, topical in water ([2]; 100 pmol in water, 15-180 min, FIG. 9): no different from controls at any time interval; also recorded: did not contain more pheromone than was present in extracts obtained from insects treated with water only | pheromone production, topical 500 pmol/female in 80% acetonitrile ([2]; 60 min): no significant activity | amount required to stimulate significant pheromone production relative to [6--Pha--Ala^0 ]Lom--MT--II ([2]; DMSO carrier): ten fold more | dose from which pheromone is produced, topical in DMSO ([2]; DMSO carrier, 60 min, FIG. 6): 50 pmol/female | amount of pheromone at 100 to 1000 pmol/female, topical in DMSO ([2]; DMSO carrier, FIG. 6): equivalent amounts of pheromone | pheromone production after topical application in DMSO ([2]; DMSO carrier): produced pheromone; also recorded: effective in stimulating pheromone production | pheromone production, topical 500 pmol/female in DMSO ([2]; 60 min): equivalent amounts of pheromone | pheromone production when applied to the surface of the cuticle in water ([2]; water carrier): failed to stimulate production of significant amounts of pheromone | pheromone production, topical 500 pmol/female in water ([2]; 60 min): no significant activity | Threshold Concentration, myostimulation of the isolated cockroach hindgut [3]: 2,600 pM | ED50, pheromone production via injection [4]: 1.0 pmol | Maximal Response via injection (dose) [4]: 5.0 pmol | pheromone production over control group after topical aqueous application ([5]; 15 min, 1 hr, 2 hr, 3 hr following treatment, listed as PBAN): does not lead to production of statistically different levels of pheromone production | ED50, pheromone production via topical application [5, 8]: Inactive | Maximal Response via topical application [5, 8]: Inactive | share of orally administered peptide entering the hemolymph through the gut wall ([6]; oral administration): approximately 5%

pQTSPhe--Thr--Pro--Arg--Leu--NH2 (pQTS-FTPRL-NH2) [octapeptide leucopyrokinin of the cockroach Leucophaea maderae, reference compound]
reversibility of myostimulatory response by saline rinse [7]: immediately reversed by a saline rinse; also recorded: immediately vanished following a saline rinse; also recorded: subsides immediately following a saline rinse | Threshold Concentration, myostimulation of the isolated cockroach hindgut [3]: 650 pM | Maximal Response via injection (dose) (corn earworm moth H. zea; data from H. zea): 70 pmol | ED50, pheromone production via injection (corn earworm moth H. zea; data from the related corn earworm moth H. zea): 5 pmol

proctolin
fate of ingested peptide in the gut ([6]; in vivo): rendered inactive in the gut

From US5795857A, “Mimetic insect pyrokinin analogs for insect control” (The United States of America as represented by the …, priority 1996, dated 1998)
